Reference: publication PMC3914206

Assays:
Format in all cases: binding
Set-up in all cases: KINOMEscan: ABL1(F317L)-phosphorylated / KINOMEscan: ABL1(H396P)-nonphosphorylated / KINOMEscan: ABL1(H396P)-phosphorylated / KINOMEscan: ABL1(M351T)-phosphorylated / KINOMEscan: ABL1(T315I)-phosphorylated / KINOMEscan: ABL1-nonphosphorylated / KINOMEscan: ABL1-phosphorylated / KINOMEscan: ACVR2A / KINOMEscan: ACVR2B / KINOMEscan: ADCK3 / KINOMEscan: ADCK4 / KINOMEscan: AKT1 / KINOMEscan: AKT3 / KINOMEscan: ALK / KINOMEscan: ARK5 / KINOMEscan: AURKA / KINOMEscan: AURKC / KINOMEscan: BIKE / KINOMEscan: BMPR1A / KINOMEscan: BMPR1B / KINOMEscan: BMX / KINOMEscan: BRK / KINOMEscan: BRSK1 / KINOMEscan: BRSK2 / KINOMEscan: CAMK1 / KINOMEscan: CAMK1D / KINOMEscan: CAMK1G / KINOMEscan: CAMK2A / KINOMEscan: CAMK2B / KINOMEscan: AAK1 / KINOMEscan: CAMK2D / KINOMEscan: CAMK2G / KINOMEscan: ABL1(F317I)-nonphosphorylated / KINOMEscan: ABL1(F317I)-phosphorylated / KINOMEscan: ABL1(F317L)-nonphosphorylated: unit: % Ctrl
panel of 442 kinases [1] = biological target: T1, panel of 442 kinases (Homo sapiens, UniProt P36888); conditions: Compound Concentration 10 µM
T1 construct: purchased KINOMEscan
T1 sequence (P36888 27-993): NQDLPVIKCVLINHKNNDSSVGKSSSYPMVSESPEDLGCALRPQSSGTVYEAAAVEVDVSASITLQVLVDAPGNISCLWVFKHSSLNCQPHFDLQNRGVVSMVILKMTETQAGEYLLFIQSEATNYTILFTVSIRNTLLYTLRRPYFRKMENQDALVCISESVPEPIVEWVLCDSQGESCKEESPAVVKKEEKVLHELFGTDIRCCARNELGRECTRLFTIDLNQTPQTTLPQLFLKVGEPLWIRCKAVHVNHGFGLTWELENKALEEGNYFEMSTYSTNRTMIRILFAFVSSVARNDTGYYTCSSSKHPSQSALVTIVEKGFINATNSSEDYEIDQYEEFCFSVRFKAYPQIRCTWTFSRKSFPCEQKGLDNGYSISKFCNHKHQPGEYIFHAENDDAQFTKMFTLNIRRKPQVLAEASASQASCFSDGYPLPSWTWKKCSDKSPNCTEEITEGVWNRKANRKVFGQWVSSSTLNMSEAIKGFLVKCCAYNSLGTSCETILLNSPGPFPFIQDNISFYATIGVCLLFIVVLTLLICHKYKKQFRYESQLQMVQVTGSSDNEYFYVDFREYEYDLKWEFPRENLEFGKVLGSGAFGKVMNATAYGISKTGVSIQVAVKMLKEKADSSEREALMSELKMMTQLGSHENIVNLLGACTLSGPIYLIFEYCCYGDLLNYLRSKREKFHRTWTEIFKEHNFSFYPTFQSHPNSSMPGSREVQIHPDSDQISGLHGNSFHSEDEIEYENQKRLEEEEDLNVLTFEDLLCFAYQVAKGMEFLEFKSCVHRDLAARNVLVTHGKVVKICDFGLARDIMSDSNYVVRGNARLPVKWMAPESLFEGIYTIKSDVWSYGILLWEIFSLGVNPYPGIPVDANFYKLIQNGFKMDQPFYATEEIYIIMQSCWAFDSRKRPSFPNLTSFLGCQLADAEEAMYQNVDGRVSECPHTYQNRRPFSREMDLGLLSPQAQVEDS
Excerpt: (§1) We assessed the selectivity of members of this scaffold using the KINOMEscan methodology across a near comprehensive panel of 442 kinases [[18,27]].

panel of 442 kinases [2] = biological target: T2, panel of 442 kinases (Homo sapiens, UniProt P12931); conditions: kinase SRC; compound concentration 10 µM
T2 construct: purchased KINOMEscan
T2 sequence (P12931 whole entry): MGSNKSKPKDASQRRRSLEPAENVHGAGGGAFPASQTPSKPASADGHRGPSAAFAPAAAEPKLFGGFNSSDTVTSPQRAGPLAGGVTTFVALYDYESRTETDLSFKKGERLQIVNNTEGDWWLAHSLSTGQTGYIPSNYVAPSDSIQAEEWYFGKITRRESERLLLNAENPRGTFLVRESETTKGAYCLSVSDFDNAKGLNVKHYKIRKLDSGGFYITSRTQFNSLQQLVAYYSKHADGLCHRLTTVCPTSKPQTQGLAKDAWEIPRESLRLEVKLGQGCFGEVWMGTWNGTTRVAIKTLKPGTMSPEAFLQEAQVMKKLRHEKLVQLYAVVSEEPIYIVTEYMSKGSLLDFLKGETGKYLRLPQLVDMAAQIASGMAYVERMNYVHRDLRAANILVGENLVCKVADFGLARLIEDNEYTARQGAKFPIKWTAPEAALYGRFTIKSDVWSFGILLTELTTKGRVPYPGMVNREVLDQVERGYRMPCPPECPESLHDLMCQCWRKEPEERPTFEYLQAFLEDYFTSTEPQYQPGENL
Excerpt: as §1

panel of 442 kinases [3] = biological target: T3, panel of 442 kinases (Homo sapiens, UniProt Q2M2I8); conditions: Compound Concentration 10 µM
T3 construct: purchased KINOMEscan
T3 sequence (Q2M2I8 whole entry): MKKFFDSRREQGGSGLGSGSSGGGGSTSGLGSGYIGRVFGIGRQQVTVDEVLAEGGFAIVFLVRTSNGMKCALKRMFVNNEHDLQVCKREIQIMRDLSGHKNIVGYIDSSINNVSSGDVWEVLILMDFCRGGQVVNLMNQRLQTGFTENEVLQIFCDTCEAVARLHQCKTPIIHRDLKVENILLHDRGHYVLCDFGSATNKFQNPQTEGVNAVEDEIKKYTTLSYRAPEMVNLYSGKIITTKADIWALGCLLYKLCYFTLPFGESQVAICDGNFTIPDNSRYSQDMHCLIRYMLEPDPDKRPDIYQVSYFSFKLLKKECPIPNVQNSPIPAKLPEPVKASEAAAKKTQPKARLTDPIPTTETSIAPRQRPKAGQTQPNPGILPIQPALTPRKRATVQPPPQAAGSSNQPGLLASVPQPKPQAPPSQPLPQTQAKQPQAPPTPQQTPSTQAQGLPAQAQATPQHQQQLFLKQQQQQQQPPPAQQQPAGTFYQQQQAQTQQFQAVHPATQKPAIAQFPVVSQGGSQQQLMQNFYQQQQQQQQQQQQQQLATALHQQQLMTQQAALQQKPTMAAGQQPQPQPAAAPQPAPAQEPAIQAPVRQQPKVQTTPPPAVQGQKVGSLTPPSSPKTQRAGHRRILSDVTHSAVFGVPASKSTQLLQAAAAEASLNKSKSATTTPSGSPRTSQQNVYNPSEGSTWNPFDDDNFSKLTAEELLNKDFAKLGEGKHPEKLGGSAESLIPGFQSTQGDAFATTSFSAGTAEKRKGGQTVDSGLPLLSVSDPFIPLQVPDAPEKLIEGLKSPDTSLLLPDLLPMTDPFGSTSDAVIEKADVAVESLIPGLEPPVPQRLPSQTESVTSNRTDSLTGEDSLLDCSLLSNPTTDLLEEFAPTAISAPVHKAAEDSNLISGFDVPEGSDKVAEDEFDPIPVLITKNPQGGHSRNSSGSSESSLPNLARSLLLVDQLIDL
Excerpt: as §1

Compound | KINOMEscan: FLT3 (panel of 442 kinases [1]) | % Ctrl, SRC (panel of 442 kinases [2]) [% Ctrl] | KINOMEscan: AAK1 (panel of 442 kinases [3])
COc1cc(C(=O)N2CCC(N3CCN(C)CC3)CC2)ccc1Nc1ncc2c(n1)N(C)c1ccccc1C(=O)N2C [15 (LRRK2-IN-1)] | 100 | 100 | 84
COc1cc(C(=O)N2CCC(N3CCN(C)CC3)CC2)ccc1Nc1ncc2c(n1)N1CCc3cccc(c31)C(=O)N2C [Compound 24] | – | 95 | –
COc1cc(C(=O)N2CCC(N3CCN(C)CC3)CC2)ccc1Nc1ncc2c(n1)N(C1CCCC1)c1ccccc1C(=O)N2C [Compound 25, 11-cyclopentyl-2-((2-methoxy-4-(4-(4-methylpiperazin-1-yl)piperidine-1-carbonyl)phenyl)amino)-5-methyl-5H-benzo[e]pyrimido[5,4-b][1,4]diazepin-6(11H)-one] | 100 | 90 | 89
CCOc1cc(C(=O)N2CCC(N3CCN(C)CC3)CC2)ccc1Nc1ncc2c(n1)N(C1CCCC1)c1ccccc1C(=O)N2C [Compound 26] | 100 | 100 | 100
